# According to patent US12622910B2, “Inhibitors of Bruton's tyrosine kinase and methods of their use” (Janssen Pharmaceutica NV, priority 2021, dated 2026):
# Like-named read-outs stand apart in the source and are kept apart here.
# Legend:
# CYP3A4 = biological target: T1, CYP3A4 (Homo sapiens, UniProt P08684); test: Metabolism by recombinant CYPs; type: in vitro ADME; settings: 1 μM, 100 pmol P450/mL, 1 mM NADPH
# T1 construct: with specific CYP probe substrates in human liver microsomes; from tissue; host or cells: human liver microsomes
# Procedure: To assess the potential of the compound of Formula (III) to be a time-dependent inhibitor of CYP3A, human liver microsomes were preincubated for 30 minutes at 37° C. with the compound of Formula (III) at concentrations up to 10 μM, and CYP3A activity was measured using testosterone as a probe substrate. […] The potential of the compound of Formula (III) to induce CYPs at the transcriptional level was assessed using Puracyp™ DPX2 (CYP3A4, PXR) and DRE (CYP1A2, AhR) luciferase-reporter cell lines; rifampicin and omeprazole were used as positive controls for CYP3A and CYP1A induction, respectively. The activation by the compound of Formula (III) was <20% of positive control values for PXR (6.6% and 14.1% at 1 and 10 μM change, respectively) or AhR (0.1% and 0.3% change, respectively). […] Potential involvement of various CYP isoforms in the metabolism of the compound of Formula (III) was investigated by measuring the parent compound remaining after 1-hour incubation with the compound of Formula (III) (1 μM) with recombinant CYPs (rCYPs) at 100 pmol P450/mL in the presence of 1 mM NADPH at 37° C. The only isozyme that produced notable the compound of Formula (III) turnover with <1% parent remaining after 1-hour incubation was CYP3A4 (FIG. 24). […]
# [1] = Plasma protein binding, equilibrium dialysis; type: in vitro ADME
# Procedure: Additional Data on Preclinical PK Profile—Protein binding of the compound of Formula (III) was studied using an equilibrium dialysis method in plasma from human, cynomolgus monkey, beagle dog, Sprague Dawley rat, CD-1 mouse, and guinea pig at 0.25, 2.5, and 25 μM. […] In human and monkey, the plasma protein binding was concentration dependent. […] Free fraction of the compound of Formula (III) in liver microsomes from various species ranged from 75.1% to 87.9% at 0.25 mg/mL and from 58.9% to 86.5% at 1.0 mg/mL (Table 17). […] In hepatocytes, the compound of Formula (III) turnover followed a similar trend, with T1/2 ranging from 75.3 minutes in monkey to 278.1 minutes in human.
# hind paw inflammation = test: Rat collagen-induced arthritis; type: in vivo, female Wistar rat
# Description: (§1) In vivo activity in collagen-induced arthritis—A rat CIA model in female Wistar rats was used to define the impact of the compound of Formula (III) on chronic inflammation and derive PK-PD correlations (FIG. 16). YiSaipu™ (recombinant human tumor necrosis factor-α receptor (type II): IgGI Fc (rhTNFR:Fc) fusion protein; biogeneric version of Etanercept™) was used as a comparator. […] The doses required to achieve meaningful efficacy correlated with a BTK target occupancy threshold of >75% over 24 hours based on the preceding target engagement studies.
# (§2) Rat collagen-induced arthritis—An emulsion was prepared on ice from equal volumes of type II collagen (CII; Chondrex) (2 mg/mL in 100 mM acetic acid (Sinopharm Chemical Reagent Co. Ltd)) and Incomplete Freund's Adjuvant (IFA) (Sigma-Aldrich) by high speed homogenization (28,000 rpm) for 3 min (FLUKO Equipment Shanghai Co. Ltd). Eighty-two rats were used in the study. Before immunization, 6 rats were randomly selected as a naïve group. The other 76 rats were anesthetized with inhalational isoflurane, and injected intradermally at the base of the tail with 0.2 mL of the emulsion (1 mg/mL CII/IFA), 2 to 3 cm from the body on day 0 and day 7. On day 10, the 56 rats with the most developed arthritis based on paw volume measurements out of the 76 rats that were immunized were divided into 7 groups (n=8) with a stratified random block design according to average hind paw volume of each rat. Each group with similar starting paw inflammation was administered with vehicle or different doses of the compound of Formula (III) (0.3, 1, 2, 3, 10 mg/kg, PO, QD, days 10-17) or YiSaiPu (biosimilar etarnacept) (15 mg/kg, IP, QOD, days 10-16).
# (§3) Hind paws volume and body weight were monitored daily for 7 consecutive days (days 10-16) after initiation of test article dosing. Left and right paw volumes in each rat were measured by a Plethysmometer (Catalog No. 7140, Ugo Basile. Italy). Blood (about 300 μL) in the groups treated with the compound of Formula (III) was collected into heparinized tubes via retro-orbital bleeding under isoflurane anesthesia on day 17-18. For groups treated with the compound of Formula (III), the composite collection time points were 0, 0.5, 1, 2, 4, 8, 12 and 24 hrs after last administration of the compound of Formula (III). After collection, blood samples were centrifuged (5,000 rpm for 10 min), plasma collected, and the concentrations of the compound of Formula (III) were determined using liquid chromatography mass spectrophotometry.
# [2] = Rat collagen-induced arthritis; type: in vivo, female Wistar rat; settings: female, Wistar, rat, plasma, oral, 2 mg/kg/day
# Description: as §1, §2, §3
# [3] = CD-1, mouse, read-out: % Free in plasma
# [4] = beagle, dog, read-out: % Free in plasma
# [5] = cynomolgus monkey, read-out: % Free in plasma
# T1 sequence (P08684 whole entry): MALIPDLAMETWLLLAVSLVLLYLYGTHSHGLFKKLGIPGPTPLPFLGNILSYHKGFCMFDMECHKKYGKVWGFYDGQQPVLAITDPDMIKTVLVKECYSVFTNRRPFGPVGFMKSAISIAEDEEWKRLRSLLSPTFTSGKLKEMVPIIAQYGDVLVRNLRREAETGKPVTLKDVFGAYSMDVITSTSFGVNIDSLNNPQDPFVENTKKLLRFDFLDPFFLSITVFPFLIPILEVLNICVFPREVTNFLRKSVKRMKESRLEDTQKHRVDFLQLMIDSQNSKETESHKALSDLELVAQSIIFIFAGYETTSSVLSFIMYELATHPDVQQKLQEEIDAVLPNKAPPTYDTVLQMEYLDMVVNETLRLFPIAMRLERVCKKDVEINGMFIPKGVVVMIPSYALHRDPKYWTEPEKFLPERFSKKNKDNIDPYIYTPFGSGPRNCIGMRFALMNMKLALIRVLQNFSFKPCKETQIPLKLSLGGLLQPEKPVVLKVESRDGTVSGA
smiles,measurement,setting,value
"C=CC(=O)N[C@H]1CCC[C@H]1NC(=O)c1sc2nccc3c2c1NC(=O)N3c1cnc(CC(C)C)cc1C (atropisomer, axis not shown) [compound of Formula (III), N-((1R,2S)-2-Acrylamidocyclopentyl)-5-(S)-(6-isobutyl-4-methylpyridin-3-yl)-4-oxo-4,5-dihydro-3H-1-thia-3,5,8-triazaacenaphthylene-2-carboxamide]",parent remaining after 1-hour incubation,CYP3A4,< 1%
same,fraction unbound at 0.25 μM,[1]; [3],0.0192
same,fraction unbound at 2.5 μM,"[1]; CD-1, mouse, 2.5 μM, read-out: % Free in plasma",0.024
same,fraction unbound at 25 μM,[1]; [3],0.0335
same,fraction unbound at 0.25 μM,[1]; [4],0.0688
same,fraction unbound at 25 μM,[1]; [4],0.0685
same,fraction unbound at 0.25 μM,[1]; [5],< 0.004
same,fraction unbound at 25 μM,[1]; [5],0.0532
same,fraction unbound at 1 μM,"[1]; female, Wistar, rat, read-out: free fraction in plasma",0.0754
same,effect on hind paw inflammation,"hind paw inflammation; 0.3, 1, 2, 3, 10 mg/kg/day PO QD",attenuated hind paw inflammation in a dose-dependent manner
same,dose with effect on inflammation equivalent to anti-TNFα comparator,hind paw inflammation; PO QD,≥ 2 mg/kg/day
same,AUC(0-t),[2]; read-out: AUClast at efficacious dose,324 ng·h/mL
same,Cmax,[2]; read-out: Cmax at efficacious dose,46.6 ng/mL
